Residues, ends and D or L forms follow the SMILES beside them. *: point of attachment. Cbz = O=C(OCc1ccccc1)*
Tests used:
PDAC cells = assay: cell viability assay (Cell Counting Kit-8) on wild-type or R/R ECM; format: cell-based, mouse and human; settings: LG medium
Protocol: Cells were plated in 96-well plates coated with or without ECM at a density of 3,000 cells (MIA, 1305) or 1,500 cells (KPC or KC) per well and incubated overnight before treatment. 7rh (500 nM), ML120B (10 μM), EIPA (10.5 μM), IPI549 (600 nM), MBQ-167 (500 nM), MRT68921 (600 nM) or ML385 (10 μM), or their combinations, were added to the wells in the presence of complete medium (CM), LG medium or LQ medium for 72 h. Cell viability was determined with a Cell Counting Kit-8 assay (Glpbio). Optical density was read at 450 nm and analysed using a microplate reader with SoftMax 6.5 software (FilterMax F5, Molecular Devices). For all experiments, the medium was replaced every 24 h.

KPC or KC cells [1] = assay: uptake of [3H] from [3H]-proline-labelled ECM; format: cell-based, mouse; settings: LG medium, 24 h
Protocol: To assess the effects of Col I on metabolism, Applicant labeled wild-type and R/R fibroblasts with [^3H]-proline or [U-^13C]-glutamine for five days, during which period the cells coated the plates with Col I-containing ECM. After decellularization, KPC or KC cells and variants thereof were plated and cultured for 24 h in LG medium. The uptake of [^3H] in cells plated on wild-type ECM was dependent on macropinocytosis, as indicated by sensitivity to macropinocytosis inhibitors (EIPA (an NHE1 inhibitor), IPI549 (a PI3Kγ inhibitor) or MBQ-167 (a CDC42 and RAC inhibitor)) and to the knockdown of NHE 1 or SDC1, and enhancement by the ULK1 inhibitor MRT68921 (MRT)^11.
Wild-type or R/R fibroblasts were seeded on 6, 12 or 96-well plates. One day after plating, cells were switched into DMEM (with pyruvate) with 10% dialysed FBS supplemented with or without 500 μM [^3H]-proline or [U-^[…]]-glutamine and 100 μM vitamin C. Cells were cultured for five days with renewal of the medium every 24 h. Then fibroblasts were removed by washing in 1 ml or 500 μl or 100 μl per well PBS with 0.5% (v/v) Triton X-100 and 20 mM NH4OH. The ECM was washed five times with PBS before cancer cell plating. The following day, cancer cells were switched into the indicated medium for 24 or 72 h.

KPC cells = assay: intrasplenic PDAC cell implantation (liver tumours); format: in vivo, mouse; settings: 10 mg kg^−1 EIPA intraperitoneal every other day
Protocol: FIGS. 14A-14J: Effect of macropinocytosis and mitochondria on Col I-controlled PDAC cell growth. FIG. 14A, Bromodeoxyuridine (BrdU) incorporation into KPC cells plated on ECM mixtures produced by R/R and WT fibroblasts (R:W). Scale bars, 10 μm. FIG. 14B, FIG. 14C, Paren. and IKKα^KD KPC (FIG. 14B) or KC (FIG. 14C) cells were plated −/+ WT or R/R ECM and incubated in LG −/+ indicated reagents. Viable cells were measured after 3 days and depicted relative to untreated plastic-plated Paren. cells. (FIG. 14C). IKKα KD efficiency is shown on the right (FIG. 14B). FIGS. D, E, Viable 1305 (FIG. 14D) or MIA PaCa-2 (FIG. 14E) cells plated as above and incubated in LG −/+ EIPA. f, Viable Paren. and E79Q KPC cells plated, treated, and presented as above. […] Total viable cells were measured as above and are presented relative to the untreated cells. FIG. 14H, Mitochondrial ATP production calculated from FIG. 6B. […] Quantification of the SR positive area is shown on the left. […] Statistical significance determined by two-tailed t-test. […]
Three-month-old Col I^WT or Col I^r/r mice were treated with or without an oral gavage of 25% CCl4 in corn oil twice a week for two weeks. […] Mice were analysed 14 days after treatment with or without 10 mg kg^−1 EIPA (Sigma) by intraperitoneal injection every other day.

DDR1 = assay: immunoblot of DDR1 in KPC cells plated on wild-type or R/R ECM; format: cell-based, mouse; settings: LG medium, 24 h
Protocol: FIGS. 4A-4G: The Col I—DDR1—NRF2 axis controls macropinocytosis and mitochondrial biogenesis. FIG. 4A, Representative images and quantification of mitochondria and macropinocytosis in TMR-DEX-incubated parental and variant KPC cells grown on wild-type ECM. FIG. 4B, Immunoblot analysis of the indicated proteins in KPC cells grown on plastic or wild-type or R/R ECM and incubated in LG or LQ medium for 24 h. The effects of wild-type and R/R ECM on DDR1 signaling are summarized on the right. mito., mitochondria; pDDR1, phosphorylated DDR1. FIG. 4C, Representative images and quantification of mitochondria and macropinocytosis in TMR-DEX-incubated parental and NRF2^E79Q (E79Q) KPC cells plated on wild-type or R/R ECM in LG medium with or without 7rh or ML120B for 24 h. […] Statistical significance determined by two-tailed t-test. […]
The expression and function of DDR1 vary in different cancer stages and types^18-21. […] Unlike DDR1 in triple-negative breast cancer (TNBC)^20, no shedding of the DDR1 extracellular domain was detected (FIG. 12F). […]
Preparation of protein samples from cells and tissues, immunoblotting and immunoprecipitation were performed as before^10, 30. Immunoreactive bands were detected by an automatic X-ray film processor or a KwikQuant Imager.

KPC or KC cells [2] = assay: L-amino acid assay; format: cell-based, mouse; settings: cells cultured on wild-type ECM, LG medium, 24 h
Protocol: KPC or KC cells were grown on six-well plates coated with or without the indicated ECM in the presence of […] LG medium with or without EIPA (10.5 μM), MRT68921 (600 nM) or their combinations for 24 h. Total amounts of free 1-amino acids (except for glycine) were measured using an L-Amino Acid Assay Kit (Colorimetric, […]) according to the manufacturer's protocol. The concentration of 1-amino acids was calculated within samples by comparing the sample optical density to the standard curve and normalized to cell number.

KPC or KC cells [3] = assay: luminescence ATP detection assay; format: cell-based, mouse; settings: cells cultured on wild-type ECM, 24 h
Protocol: KPC or KC cells were grown on 96-well plates coated with or without the indicated ECM in the presence of 100 μl CM or LG medium with or without EIPA (10.5 μM), MBQ-167 (500 nM), MRT68921 (600 nM) or their combinations for 24 h. Then the cell number was measured. Intracellular ATP was determined with a luminescence ATP detection assay system (PerkinElmer) according to the manufacturer's protocol. Finally, luminescence was measured and normalized to cell number.

[4] = IKKα^KD cells versus parental cells
[5] = parental cells on wild-type ECM, 7rh 500 nM, ML120B 10 μM, ML385 10 μM, EIPA 10.5 μM, IPI549 600 nM, MBQ-167 500 nM

| SMILES | cell growth (viable cells) (PDAC cells; [4]) | cell growth (viable cells) (PDAC cells; parental cells on R/R ECM) | cell growth (viable cells) (PDAC cells; [5]) | uptake of [3H] (KPC or KC cells [1]; cells plated on R/R ECM) | uptake of [3H] (KPC or KC cells [1]; cells plated on wild-type ECM) | other results |
| --- | --- | --- | --- | --- | --- | --- |
| CCn1c2ccccc2c2cc(-n3nncc3-c3ccccc3)ccc21 (racemic) [MBQ-167] | more sensitive | did not decrease the low growth | decreased growth on wild-type ECM | unaffected | sensitivity | – |
| CCN(c1nc(N)c(C(=O)NC(=N)N)nc1Cl)C(C)C [EIPA] | more sensitive | did not decrease the low growth | decreased growth on wild-type ECM | unaffected | sensitivity | tumour growth (KPC cells; Col I^r/r livers): had little effect; tumour growth (KPC cells; wild-type livers): inhibited tumour growth |
| C[C@H](NC(=O)c1c(N)nn2cccnc12)c1cc2cccc(C#Cc3cnn(C)c3)c2c(=O)n1-c1ccccc1 [IPI549] | more sensitive | did not decrease the low growth | decreased growth on wild-type ECM | unaffected | sensitivity | – |
| CC(C)C[C@@H](C=O)NC(=O)[C@H](CC(C)C)NC(=O)[C@H](CC(C)C)NC(=O)OCc1ccccc1 [MG132] (Cbz-Leu-Leu-Leu-aldehyde) | – | – | – | – | – | DDR1 expression (DDR1): rescued DDR1 expression |
| COc1c(Cl)cc2c([nH]c3cnccc32)c1NC(=O)c1cccnc1C [ML120B] | – | did not decrease the low growth | decreased growth on wild-type ECM | – | – | cell growth (viable cells) (PDAC cells; NRF2(E79Q)-expressing cells): resistant |
| Cc1ccccc1C(=O)N1CCc2cc(-c3nc(NC(=O)Cc4ccc5c(c4)OCO5)sc3C)ccc21 [ML385] | – | did not decrease the low growth | decreased growth on wild-type ECM | – | – | – |
| CN1CCc2cc(Nc3ncc(C4CC4)c(NCCCNC(=O)C4CCC4)n3)ccc2C1 [MRT68921] | – | – | – | – | enhancement | amino acid content (KPC or KC cells [2]): further increased; levels of ATP (KPC or KC cells [3]): further increased |

Source: US20230341404A1, “TARGETING STROMA-CANCER INTERACTIONS IN CANCER” (The Regents of the University of California, priority 2022, published 2023)
